Results: patent US20240158446A1, “CYCLIC COMPOUND HAVING SELECTIVE INHIBITORY ACTION ON KRAS OVER HRAS AND NRAS” (CHUGAI SEIYAKU KABUSHIKI KAISHA, priority 2021, published 2024)

Legend:
[1] = target: GDP-bound NRAS wild-type protein (Homo sapiens, UniProt P01111); experiment: Binding to NRAS by surface plasmon resonance (SPR), Single Cycle Kinetics; details: SPR, GDP-bound NRAS wild-type protein vs GDP-bound KRAS wild-type protein
[2] = target: GDP-bound KRAS wild-type protein (Homo sapiens, UniProt P01116); experiment: Binding to KRAS by surface plasmon resonance (SPR), Single Cycle Kinetics; details: SPR, Single Cycle Kinetics, GDP-bound KRAS wild-type protein; read-out: KRAS KD
GDP-bound KRAS wild-type protein, sequence (P01116 whole entry): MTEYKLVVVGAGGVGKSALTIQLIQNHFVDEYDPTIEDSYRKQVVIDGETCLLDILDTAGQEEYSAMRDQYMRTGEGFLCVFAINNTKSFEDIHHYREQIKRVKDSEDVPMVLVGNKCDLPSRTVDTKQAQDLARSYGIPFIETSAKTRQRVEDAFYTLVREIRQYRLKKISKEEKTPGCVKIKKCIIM

[3] = system: human lung cancer strain NCI-H441;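 also: cell proliferation inhibition after four days measured by CellTiter-Glo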
[4] = target: GDP-bound HRAS wild-type protein (Homo sapiens, UniProt P01112); experiment: Binding to HRAS by surface plasmon resonance (SPR), Single Cycle Kinetics; details: SPR, GDP-bound HRAS wild-type protein vs GDP-bound KRAS wild-type protein
GDP-bound HRAS wild-type protein, sequence (P01112 whole entry): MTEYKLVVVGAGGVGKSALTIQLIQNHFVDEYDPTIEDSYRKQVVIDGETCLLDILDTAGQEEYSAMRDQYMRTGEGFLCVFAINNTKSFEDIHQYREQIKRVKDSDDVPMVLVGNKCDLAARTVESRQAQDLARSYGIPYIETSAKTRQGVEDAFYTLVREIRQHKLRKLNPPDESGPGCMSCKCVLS

GDP-bound NRAS wild-type protein, sequence (P01111 whole entry): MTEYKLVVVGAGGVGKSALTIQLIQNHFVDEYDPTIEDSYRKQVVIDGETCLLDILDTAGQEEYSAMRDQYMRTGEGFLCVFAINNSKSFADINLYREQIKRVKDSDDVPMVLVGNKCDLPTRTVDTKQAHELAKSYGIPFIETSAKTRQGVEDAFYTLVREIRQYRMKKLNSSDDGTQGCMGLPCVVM

SMILES	Kd [2]	IC50 [3]	NRAS/KRAS (ratio of KD value for NRAS to KD value for KRAS) [1]	HRAS/KRAS (ratio of KD value for HRAS to KD value for KRAS) [4]
CC[C@H](C)[C@@H]1NC(=O)[C@H](COC)N(C)C(=O)C[C@@H](C(=O)N(CC)CC)N(C)C(=O)[C@H](C2CCCC2)N(C)C(=O)C2(CC(C)(C)C2)NC(=O)[C@@H]2C[C@H](C)CN2C(=O)[C@H](CCc2cc(F)c(C(F)(F)F)c(F)c2)NC(=O)CN(C)C(=O)[C@H](Cc2ccc(C)cc2)N2CC/C=C\C[C@@H](C2=O)N(C)C(=O)CN(C)C1=O [PP2455]	0.32 nM	23.4 nM	AA (a compound having 20 or more is denoted as AA)	A (a compound having 10 or more and less than 20 is denoted as A)
CCOC[C@H]1C(=O)N[C@@H]([C@@H](C)CC)C(=O)N(C)CC(=O)N(C)[C@H]2C/C=C\CCN(C2=O)[C@@H](Cc2ccc(C)cc2)C(=O)N(C)CC(=O)N[C@@H](CCc2cc(F)c(C(F)(F)F)c(F)c2)C(=O)N2C[C@@H](C)C[C@H]2C(=O)NC2(CC(C)(C)C2)C(=O)N(C)[C@@H](C2CCCC2)C(=O)N(C)[C@H](C(=O)N(C)CC)CC(=O)N1C [PP2457]	0.17 nM	13.3 nM	A (a compound having 10 or more and less than 20 is denoted as A)	A (a compound having 10 or more and less than 20 is denoted as A)
CCOC[C@H]1C(=O)N[C@@H]([C@@H](C)CC)C(=O)N(C)CC(=O)N(C)[C@H]2C/C=C\CCN(C2=O)[C@@H](CC2CCC(F)(F)CC2)C(=O)N(C)CC(=O)N[C@@H](CCc2ccc(C(F)(F)F)c(OC)c2)C(=O)N2C[C@@H](C)C[C@H]2C(=O)NC2(CC(C)(C)C2)C(=O)N(C)[C@@H](C(CC)CC)C(=O)N(C)[C@H](C(=O)N(C)C)CC(=O)N1C [PP2458]	1.3 nM	80.7 nM	A (a compound having 10 or more and less than 20 is denoted as A)	A (a compound having 10 or more and less than 20 is denoted as A)

Continued, in another order:

Kd [2]	IC50 [3]	SMILES	NRAS/KRAS (ratio of KD value for NRAS to KD value for KRAS) [1]	HRAS/KRAS (ratio of KD value for HRAS to KD value for KRAS) [4]
1.2 nM	80.2 nM	CCC(CC)[C@H]1C(=O)N(C)[C@H](C(=O)N(C)C)CC(=O)N(C)[C@@H](COC)C(=O)N[C@@H]([C@@H](C)CC)C(=O)N(C)CC(=O)N(C)[C@H]2C/C=C\CCN(C2=O)[C@@H](CC2CCC(F)(F)CC2)C(=O)N(C)CC(=O)N[C@@H](CCc2ccc(C(F)(F)F)c(Cl)c2)C(=O)N2C[C@@H](C)C[C@H]2C(=O)NC2(CC(C)(C)C2)C(=O)N1C [PP2454]	AA (a compound having 20 or more is denoted as AA)	A (a compound having 10 or more and less than 20 is denoted as A)
1.1 nM	18.8 nM	CCO[C@@H]1C[C@H]2C(=O)NC3(CC(C)(C)C3)C(=O)N(C)[C@@H](C(CC)CC)C(=O)N(C)[C@H](C(=O)N(C)C)CC(=O)N(C)[C@@H](COC)C(=O)N[C@@H]([C@@H](C)CC)C(=O)N(C)CC(=O)N(C)[C@H]3C/C=C\CCN(C3=O)[C@@H](CC3CCCCC3)C(=O)N(C)CC(=O)N[C@@H](CCc3cc(F)c(C(F)(F)F)c(F)c3)C(=O)N2C1 [PP2456]	A (a compound having 10 or more and less than 20 is denoted as A)	A (a compound having 10 or more and less than 20 is denoted as A)
0.71 nM	18.7 nM	CCOC[C@H]1C(=O)N[C@@H]([C@@H](C)CC)C(=O)N(C)CC(=O)N(C)[C@H]2C/C=C\CCN(C2=O)[C@@H](CC2CCC(F)(F)CC2)C(=O)N(C)CC(=O)N[C@@H](CCc2ccc(C(F)(F)F)c(Cl)c2)C(=O)N2C[C@H](OCC)C[C@H]2C(=O)NC2(CC(C)(C)C2)C(=O)N(C)[C@@H](C(CC)CC)C(=O)N(C)[C@H](C(=O)N(C)C)CC(=O)N1C [PP2460]	A (a compound having 10 or more and less than 20 is denoted as A)	A (a compound having 10 or more and less than 20 is denoted as A)
